Where a name gives a salt, the structure may show the parent alone. Activity calls are given as the source filed them. The rule behind the calls is not given here.
Key:
[1] = molecular target: DNA topoisomerase 2-alpha (Homo sapiens) (UniProt P11388); test: Inhibition of human recombinant topoisomerase-2alpha assessed as inhibition of relaxation of supercoiled pBR322 plasmid DNA at 100 uM measured after 1 hr by ethidium bromide staining based agarose gel electrophoresis relative to control
HeLa = test: Antiproliferative activity against human HeLa cells incubated for 72 hrs by CCK8 assay; format: functional, cell-based
[2] = molecular target: DNA topoisomerase 2-alpha (Homo sapiens) (UniProt P11388); test: Inhibition of human recombinant topoisomerase-2alpha assessed as inhibition of relaxation of supercoiled pBR322 plasmid DNA at 20 uM measured after 1 hr by ethidium bromide staining based agarose gel electrophoresis relative to control etoposide
[3] = molecular target: DNA topoisomerase 2-alpha (Homo sapiens) (UniProt P11388); test: Inhibition of human recombinant topoisomerase-2alpha assessed as inhibition of relaxation of supercoiled pBR322 plasmid DNA at 20 uM measured after 1 hr by ethidium bromide staining based agarose gel electrophoresis relative to control
HCT-15 = test: Antiproliferative activity against human HCT15 cells incubated for 72 hrs by CCK8 assay; format: functional, cell-based; conditions: HCT-15, 72 h
[4] = molecular target: T1, DNA topoisomerase 1 (Homo sapiens) (UniProt P11387); test: Inhibition of human recombinant topoisomerase-1 assessed as inhibition of relaxation of supercoiled pBR322 plasmid DNA at 100 uM measured after 1 hr by ethidium bromide staining based agarose gel electrophoresis relative to control
T1 sequence (whole entry): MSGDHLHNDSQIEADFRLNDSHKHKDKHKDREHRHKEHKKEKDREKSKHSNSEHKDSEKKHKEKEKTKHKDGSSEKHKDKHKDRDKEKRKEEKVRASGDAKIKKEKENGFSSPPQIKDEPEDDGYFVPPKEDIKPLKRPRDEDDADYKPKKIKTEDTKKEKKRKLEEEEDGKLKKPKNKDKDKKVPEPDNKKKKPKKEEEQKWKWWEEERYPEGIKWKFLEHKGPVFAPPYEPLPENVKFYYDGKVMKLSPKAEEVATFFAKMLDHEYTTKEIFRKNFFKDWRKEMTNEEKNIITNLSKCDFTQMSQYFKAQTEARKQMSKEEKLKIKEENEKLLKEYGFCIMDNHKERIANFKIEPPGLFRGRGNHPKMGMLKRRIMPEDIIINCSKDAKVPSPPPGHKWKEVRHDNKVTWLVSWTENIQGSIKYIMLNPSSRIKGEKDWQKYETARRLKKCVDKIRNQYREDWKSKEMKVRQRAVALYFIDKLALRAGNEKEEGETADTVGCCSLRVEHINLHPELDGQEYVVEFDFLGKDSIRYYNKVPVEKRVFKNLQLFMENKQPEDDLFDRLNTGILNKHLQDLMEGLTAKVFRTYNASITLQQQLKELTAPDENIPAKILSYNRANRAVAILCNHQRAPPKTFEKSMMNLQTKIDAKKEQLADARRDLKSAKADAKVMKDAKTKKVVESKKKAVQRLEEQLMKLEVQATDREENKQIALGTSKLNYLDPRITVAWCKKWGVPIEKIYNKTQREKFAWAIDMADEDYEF

T47D = test: Antiproliferative activity against human T47D cells incubated for 72 hrs by CCK8 assay; format: functional, cell-based
[5] = molecular target: DNA topoisomerase 2-alpha (Homo sapiens) (UniProt P11388); test: Inhibition of human recombinant topoisomerase-2alpha assessed as inhibition of relaxation of supercoiled pBR322 plasmid DNA at 100 uM measured after 1 hr by ethidium bromide staining based agarose gel electrophoresis relative to control etoposide
[6] = molecular target: T1, DNA topoisomerase 1 (Homo sapiens); test: Inhibition of human recombinant topoisomerase-1 assessed as inhibition of relaxation of supercoiled pBR322 plasmid DNA at 20 uM measured after 1 hr by ethidium bromide staining based agarose gel electrophoresis relative to control

Chain of DNA topoisomerase 2-alpha (Homo sapiens) (P11388 whole entry): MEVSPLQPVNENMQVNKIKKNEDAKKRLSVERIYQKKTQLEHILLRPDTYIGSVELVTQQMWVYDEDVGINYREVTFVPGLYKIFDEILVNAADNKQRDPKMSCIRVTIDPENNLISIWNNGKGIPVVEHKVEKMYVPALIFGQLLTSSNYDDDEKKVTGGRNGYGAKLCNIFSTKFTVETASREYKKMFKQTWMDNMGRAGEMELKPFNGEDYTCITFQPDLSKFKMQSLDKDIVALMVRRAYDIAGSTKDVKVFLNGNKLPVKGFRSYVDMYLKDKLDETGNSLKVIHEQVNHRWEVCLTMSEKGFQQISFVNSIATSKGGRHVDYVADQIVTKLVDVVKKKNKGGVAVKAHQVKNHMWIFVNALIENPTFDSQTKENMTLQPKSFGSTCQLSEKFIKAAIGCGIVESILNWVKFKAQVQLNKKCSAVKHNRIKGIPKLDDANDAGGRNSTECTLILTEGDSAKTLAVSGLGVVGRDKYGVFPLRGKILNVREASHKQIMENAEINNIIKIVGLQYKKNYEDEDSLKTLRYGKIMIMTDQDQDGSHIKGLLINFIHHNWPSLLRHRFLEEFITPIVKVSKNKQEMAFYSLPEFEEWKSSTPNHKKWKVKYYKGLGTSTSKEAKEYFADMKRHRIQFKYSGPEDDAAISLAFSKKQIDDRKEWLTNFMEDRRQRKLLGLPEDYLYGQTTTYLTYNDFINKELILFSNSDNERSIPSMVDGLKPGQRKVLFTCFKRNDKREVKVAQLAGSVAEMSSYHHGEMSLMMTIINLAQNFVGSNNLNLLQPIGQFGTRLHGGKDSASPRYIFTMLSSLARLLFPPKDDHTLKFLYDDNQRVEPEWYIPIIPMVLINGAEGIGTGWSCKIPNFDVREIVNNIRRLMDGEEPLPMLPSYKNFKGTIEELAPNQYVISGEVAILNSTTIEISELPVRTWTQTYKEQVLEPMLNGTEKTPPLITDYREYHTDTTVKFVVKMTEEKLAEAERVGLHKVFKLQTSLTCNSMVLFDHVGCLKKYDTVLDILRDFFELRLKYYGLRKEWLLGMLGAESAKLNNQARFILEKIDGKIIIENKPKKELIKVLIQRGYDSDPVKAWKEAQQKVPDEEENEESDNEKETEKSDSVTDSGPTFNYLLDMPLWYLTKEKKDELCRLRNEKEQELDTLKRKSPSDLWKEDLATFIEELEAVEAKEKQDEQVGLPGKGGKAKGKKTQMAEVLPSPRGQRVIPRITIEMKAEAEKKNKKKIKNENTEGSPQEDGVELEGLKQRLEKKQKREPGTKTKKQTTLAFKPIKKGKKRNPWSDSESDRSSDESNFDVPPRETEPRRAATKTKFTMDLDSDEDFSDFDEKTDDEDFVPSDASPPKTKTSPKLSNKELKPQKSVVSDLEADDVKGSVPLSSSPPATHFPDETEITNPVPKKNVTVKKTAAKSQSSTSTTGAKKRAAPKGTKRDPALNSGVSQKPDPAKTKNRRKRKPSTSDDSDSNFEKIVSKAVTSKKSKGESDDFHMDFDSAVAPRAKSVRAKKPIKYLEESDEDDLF

inhibition [1] [%] | IC50 (HeLa) [µM] | Ratio [2] | inhibition [3] [%] | IC50 (HCT-15) [µM] | inhibition [4] [%] | IC50 (T47D) [µM] | Ratio [5] | inhibition [6] [%] | inhibition [5] | Compound
71 | 3.32 | 1.33 | 65.9 | 4.21 | 33.8 | 0.17 | 1.15 | 18.6 |  | Oc1ccc(-c2cc(-c3ccc(O)cc3)c3oc4cc(O)ccc4c3n2)cc1
18.3 | > 50 |  |  | > 50 | 30.8 | > 50 |  | 0 |  | Oc1ccc2c(c1)oc1c(-c3ccccc3)cc(-c3ccccc3)nc12
66.1 | 2.16 | 1.11 | 55.1 | 3.73 | 66.3 | 0.19 | 1.07 | 38.1 |  | Oc1ccc(-c2cc(-c3cccc(O)c3)c3oc4cc(O)ccc4c3n2)cc1
46 | > 50 | 0.96 | 38 | > 50 | 30.1 | 1.03 | 0.6 | 0 |  | Oc1ccc2c(c1)oc1c(-c3ccccc3O)cc(-c3ccccc3O)nc12
99.1 | 3.39 | 1.53 | 76 | 6.96 | 25.6 | 1.26 | 1.6 |  |  | Oc1cccc(-c2cc(-c3ccccc3O)nc3c2oc2cc(O)ccc23)c1
100 | 0.86 | 1.49 | 74.1 | 1.22 | 22.4 | 0.59 | 1.62 |  |  | Oc1cccc(-c2cc(-c3cccc(O)c3)c3oc4cc(O)ccc4c3n2)c1
98 | 3.27 | 0.84 | 41.9 | 4.11 | 27.4 | 0.34 | 1.58 |  |  | Oc1cccc(-c2cc(-c3ccccc3)nc3c2oc2cc(O)ccc23)c1
58.4 | 29.1 | 0.91 | 45.1 | 23.9 | 71.7 | 5.25 | 0.94 | 60.9 |  | Oc1ccc(-c2cc(-c3cccc(O)c3)nc3c2oc2cc(O)ccc23)cc1
83.1 | 4.11 | 1.33 | 52.6 | 1.6 | 18.2 | 0.71 | 1.08 |  |  | Oc1ccc2c(c1)oc1c(-c3ccccc3)cc(-c3ccccc3O)nc12

Continued, molecule first:

Compound | inhibition [1] [%] | IC50 (HeLa) [µM] | Ratio [2] | inhibition [3] [%] | IC50 (HCT-15) [µM] | inhibition [4] [%] | IC50 (T47D) [µM] | Ratio [5] | inhibition [6] [%] | inhibition [5]
Oc1cccc(-c2cc(-c3ccccc3)c3oc4cc(O)ccc4c3n2)c1 | 46.3 | > 50 | 0.82 | 32.5 | > 50 | 15.9 | 2.79 | 0.6 |  | 
Oc1ccc(-c2cc(-c3ccccc3O)c3oc4cc(O)ccc4c3n2)cc1 | 87.3 | 2.86 | 0.73 | 29 | 1.26 | 3.3 | 0.62 | 1.12 |  | 
COc1cccc2c1C(=O)c1c(O)c3c(c(O)c1C2=O)C[C@@](O)(C(=O)CO)C[C@@H]3O[C@H]1C[C@H](N)[C@H](O)[C@H](C)O1 [DOXORUBICIN HYDROCHLORIDE] |  | 1.5 |  |  | 0.51 |  |  |  |  | 
Oc1ccc(-c2cc(-c3ccccc3O)nc3c2oc2cc(O)ccc23)cc1 | 100 | 3.62 | 1.42 | 70.8 | 9.34 | 39.9 | 1.97 | 1.62 | 0 | 
Oc1cccc(-c2cc(-c3ccccc3O)c3oc4cc(O)ccc4c3n2)c1 | 63 | 3.63 | 0.31 | 12 | 2.5 | 33.9 | 0.64 | 0.82 | 0 | 
Oc1ccc(-c2cc(-c3ccccc3)c3oc4cc(O)ccc4c3n2)cc1 | 78.4 | > 50 | 1.83 | 72.2 | > 50 | 43.9 | 5.3 | 1.02 | 0 | 
Oc1ccc2c(c1)oc1c(-c3ccccc3O)cc(-c3ccccc3)nc12 | 52.5 | 6.93 | 0.48 | 19.1 | 5.74 | 14.2 | 0.74 | 0.69 |  | 
Oc1ccc(-c2cc(-c3ccccc3)nc3c2oc2cc(O)ccc23)cc1 | 0.4 | > 50 |  |  | > 50 | 30.3 | > 50 |  | 0 | inactive

From ChEMBL document CHEMBL4184253, “Design, synthesis, and structure-activity relationships of new benzofuro[3,2-b]pyridin-7-ols as DNA topoisomerase II inhibitors” (Bioorg Med Chem Lett, 2018)
